Patent publication US11840686B2, “Modulation of prekallikrein (PKK) expression” (Ionis Pharmaceuticals, Inc., priority 2013, dated 2023)
Strand notation (5' to 3'): a small letter for the sugar, then the base; units joined by * are phosphorothioate-linked, units joined directly phosphodiester-linked; [ ] holds rarer units or linkages, { } end groups; capitals alone tell only the bases. e = 2'-O-(2-methoxyethyl) (MOE); k = constrained ethyl (cEt); [5mC] = 5-methylcytosine; d = 2'-deoxy (DNA)

Columns and labels:
human PKK mRNA [1] = experiment: Antisense inhibition of human PKK mRNA in HepaRG cells, 5,000 nM (Example 2); type: cell-based
Procedure, shortened: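 qRT-PCR (RTS3454) read-out, RIBOGREEN-normalized; % inhibition vs untreated cells. HepaRG, 20,000 cells/well, electroporation, 5,000 nM ASO, ~24 h.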

human PKK mRNA [2] = experiment: Dose-dependent antisense inhibition of human PKK in HepaRG cells, 0.19-5.00 uM (Example 5); type: cell-based
Procedure, shortened: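 PKK mRNA knockdown was measured by real-time PCR (primer probe set RTS3454) about 16 h after electroporating 20,000 HepaRG cells per well with oligonucleotide at four doses from 0.19 to 5.00 μM. Levels were adjusted to RIBOGREEN-measured total RNA, and IC50 values were calculated.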

human PKK mRNA [3] = experiment: Human PKK mRNA in liver of human KLKB1 transgenic mice (Example 7); type: in vivo; settings: twice a week for 3 weeks
Protocol: (§1) Transgenic mice containing a 37,390 base pair fragment of the human KLKB1 gene sequence (chromosome 4: position 187148672-187179625, accession no: NC_000004.11) were treated with ISIS antisense oligonucleotides selected from studies described above, which were evaluated for efficacy in this model.
(§2) Groups of transgenic mice were injected subcutaneously twice a week for 3 weeks with 2.5 mg/kg/week, 5.0 mg/kg/week, 10 mg/kg/week or 20 mg/kg/week of ISIS 546232, ISIS 546251, ISIS 546254, ISIS 546343, ISIS 546828, ISIS 547455, ISIS 547457, ISIS 547927, and ISIS 548048. One group of transgenic mice was injected subcutaneously twice a week for 3 weeks with PBS. Mice were euthanized 48 hours after the last dose, and organs and plasma were harvested for further analysis.
To evaluate the effect of ISIS oligonucleotides on target reduction, RNA was extracted from liver tissue for real-time PCR analysis of human PKK. Results are presented as percent inhibition of PKK mRNA, relative to PBS control.

PKK protein = experiment: Plasma PKK protein levels in human KLKB1 transgenic mice (Example 7); type: in vivo; settings: plasma, twice a week for 3 weeks
Protocol: as §1, §2
Plasma PKK protein levels were evaluated in all groups. Results are presented as percent inhibition of PKK protein, relative to PBS control.

PKK mRNA = PKK mRNA in cynomolgus monkey liver (Example 8); type: in vivo; settings: 40 mg/kg s.c., loading then weekly to week 13; day 87 or 88, 48 h after final dose
Protocol: Cynomolgus monkeys were treated with ISIS antisense oligonucleotides selected from studies described above. Antisense oligonucleotide efficacy and tolerability were evaluated. The human antisense oligonucleotides tested are cross-reactive with the rhesus genomic sequence (GENBANK Accession No. NW_001118167.1 truncated from nucleotides 2358000 to 2391000 and designated herein as SEQ ID NO: 18).
On day 87 or 88, 48 hours after the final dose, RNA was extracted from liver tissue for real-time PCR analysis of PKK using primer probe set RTS3455 (forward sequence […], designated herein as SEQ ID NO: 23; reverse sequence […], designated herein as SEQ ID NO: 24; probe sequence […], designated herein as SEQ ID NO: 25). The results were normalized to the housekeeping gene, Cyclophilin. Results are presented as percent inhibition of PKK mRNA, relative to PBS control.

human PKK mRNA [4] = experiment: Antisense inhibition of human PKK mRNA in HepaRG cells, 1,000 nM, MOE/deoxy/cEt oligonucleotides (Example 3); type: cell-based; settings: HepaRG cells, electroporation with 1,000 nM antisense oligonucleotide, approximately 24 hours, primer probe set RTS3454, relative to untreated control cells; experiment of Table 23
Procedure, shortened: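 Readout is percent PKK mRNA reduction against untreated controls, by real-time PCR (RTS3454) adjusted for total RNA via RIBOGREEN. Oligonucleotides, phosphorothioate gapmers of 16 nucleosides with cEt, MOE and deoxy sugars, were delivered at 1,000 nM by electroporation to 20,000 HepaRG cells/well for roughly 24 h.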

human PKK mRNA [5] = experiment: Dose-dependent antisense inhibition of human PKK in HepaRG cells, 0.11-3.00 uM (Example 6); type: cell-based; settings: electroporation, approx. 16 hours, relative to untreated control cells
Procedure, shortened: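 Antisense oligonucleotides were tested over 0.11–3.00 μM, delivered by electroporation, with readout after roughly 16 h. Human PKK transcript was measured by real-time PCR (set RTS3454) and adjusted to RIBOGREEN total RNA, giving half-maximal inhibitory concentrations.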

[6] = HepaRG cells, electroporation, approximately 16 hours, Table 41
[7] = 4 point dose response, HepaRG cells, Table 41
[8] = Table 34, HepaRG, electroporation, ~16 h
[9] = Table 34, PKK mRNA, HepaRG, electroporation, ~16 h
[10] = Table 9 experiment, HepaRG cells, 20,000 cells per well, electroporation with 5,000 nM antisense oligonucleotide, approx. 24 hours, PKK mRNA by RT-PCR (RTS3454), relative to untreated control cells
[11] = Table 10 experiment, HepaRG cells, 20,000 cells per well, electroporation with 5,000 nM antisense oligonucleotide, approx. 24 hours, PKK mRNA by RT-PCR (RTS3454), relative to untreated control cells
[12] = HepaRG cells, electroporation, approximately 16 hours, Table 39

Substance	percent inhibition of PKK at 5.00 μM (human PKK mRNA [2]; [6]) [%]	percent inhibition of PKK at 0.19 0μM (human PKK mRNA [2]; [6]) [%]	percent inhibition of PKK at 0.56 0μM (human PKK mRNA [2]; [6]) [%]	percent inhibition of PKK at 1.67 1μM (human PKK mRNA [2]; [6]) [%]	IC50 (human PKK mRNA [2]; [7]) [nM]	percent inhibition of PKK at 0.19 μM (human PKK mRNA [2]; [8]) [%]	percent inhibition of PKK at 0.56 μM (human PKK mRNA [2]; [8]) [%]	percent inhibition of PKK at 1.67 μM (human PKK mRNA [2]; [8]) [%]	percent inhibition of PKK at 5.00 μM (human PKK mRNA [2]; [8]) [%]	IC50 (human PKK mRNA [2]; [9]) [nM]	% inhibition of PKK mRNA in the transgenic mice liver relative to the PBS control (human PKK mRNA [3]; 2.5 mg/kg/week sc) [%]	% inhibition of PKK mRNA in the transgenic mice liver relative to the PBS control (human PKK mRNA [3]; 5 mg/kg/week sc) [%]	% inhibition of PKK mRNA in the transgenic mice liver relative to the PBS control (human PKK mRNA [3]; 10 mg/kg/week sc) [%]	% inhibition of PKK mRNA in the transgenic mice liver relative to the PBS control (human PKK mRNA [3]; 20 mg/kg/week sc) [%]	% inhibition of PKK protein levels in the transgenic mice relative to the PBS control (PKK protein; 2.5 mg/kg/week sc) [%]	% inhibition of PKK protein levels in the transgenic mice relative to the PBS control (PKK protein; 5 mg/kg/week sc) [%]	% inhibition of PKK protein levels in the transgenic mice relative to the PBS control (PKK protein; 10 mg/kg/week sc) [%]	% inhibition of PKK protein levels in the transgenic mice relative to the PBS control (PKK protein; 20 mg/kg/week sc) [%]	% inhibition of PKK mRNA in the cynomolgus monkey liver relative to the PBS control (PKK mRNA) [%]	% inhibition (human PKK mRNA [1]; [10]) [%]	other results
546254 (eT*eG*e[5mC]*eA*eA*dG*dT*d[5mC]*dT*d[5mC]*dT*dT*dG*dG*d[5mC]*eA*eA*eA*e[5mC]*eA) [compound 546254]	95	40	63	84	300	51	66	80	91	200	31	55	84	83	0	36	51	76	88	–	% inhibition (human PKK mRNA [1]; Table 8, HepaRG cells, electroporation with 5,000 nM antisense oligonucleotide, approx. 24 hours, PKK mRNA by RT-PCR (RTS3454), relative to untreated control cells): 95%
546343 (antisense e[5mC]*e[5mC]*e[5mC]*e[5mC]*e[5mC]*dT*dT*d[5mC]*dT*dT*dT*dA*dT*dA*dG*e[5mC]*e[5mC]*eA*eG*e[5mC]) [compound 546343]	95	37	32	83	400	28	64	87	87	400	46	–	66	86	0	–	38	79	74	97	% inhibition (human PKK mRNA [1]; [11]): 91%
546828 (eA*e[5mC]*eA*eG*eT*dA*dT*d[5mC]*dA*d[5mC]*dT*dG*dT*dA*d[5mC]*eT*eA*eG*eT*eT) [compound 546828]	97	0	64	89	200	39	58	87	93	300	77	62	32	83	0	25	36	93	45	–	% inhibition (human PKK mRNA [1]; Table 13, human PKK mRNA in HepaRG cells, 5-10-5 gapmers): 95%
547457 (antisense eA*eA*eG*eG*e[5mC]*dG*dA*dT*dA*dT*d[5mC]*dA*dT*dG*dA*eT*eT*e[5mC]*e[5mC]*e[5mC]) [compound 547457]	–	–	–	–	–	–	–	–	–	–	0	69	45	62	0	4	31	60	89	89	% inhibition (human PKK mRNA [1]; [11]): 92%; percent inhibition of PKK at 0.19 μM (human PKK mRNA [2]; [12]): 41%; percent inhibition of PKK at 0.56 μM (human PKK mRNA [2]; [12]): 65%; percent inhibition of PKK at 1.67 μM (human PKK mRNA [2]; [12]): 80%; percent inhibition of PKK at 5.00 μM (human PKK mRNA [2]; [12]): 85%; IC50 (human PKK mRNA [2]; 4 point dose response, HepaRG cells, Table 39): 300 nM; percent inhibition of PKK mRNA, 0.19 μM (human PKK mRNA [2]; HepaRG cells, 0.19 μM antisense oligonucleotide): 33%; percent inhibition of PKK mRNA, 0.56 μM (human PKK mRNA [2]; HepaRG cells, 0.56 μM antisense oligonucleotide): 42%; percent inhibition of PKK mRNA, 1.67 μM (human PKK mRNA [2]; HepaRG cells, 1.67 μM antisense oligonucleotide): 70%; percent inhibition of PKK mRNA, 5.00 μM (human PKK mRNA [2]; HepaRG cells, 5.00 μM antisense oligonucleotide): 83%; IC50 (human PKK mRNA [2]; HepaRG cells, 0.19-5.00 μM): 600 nM
547927 (eA*eT*kG*dG*dT*d[5mC]*d[5mC]*dG*dA*d[5mC]*dA*d[5mC]*dA*k[5mC]*kA*eA) [compound 547927]	–	–	–	–	–	–	–	–	–	–	35	52	93	71	25	21	–	80	54	–	% inhibition (human PKK mRNA [4]): 79%; percent inhibition of PKK mRNA, 0.11 μM (human PKK mRNA [5]; 0.11 μM): 56%; percent inhibition of PKK mRNA, 0.33 μM (human PKK mRNA [5]; 0.33 μM): 64%; percent inhibition of PKK mRNA, 1.00 μM (human PKK mRNA [5]; 1.00 μM): 92%; percent inhibition of PKK mRNA, 3.00 μM (human PKK mRNA [5]; 3.00 μM): 88%
